From PubChem BioAssay (NCI) come the findings set out here.

Holding throughout (test): inhibition of tumour cell growth, NCI panel, 48 h
Assay [1] relates to K-562 leukemia.
The subject of assay [2] is A549 NSCLC.
The subject of assay [3] is OVCAR-4 ovarian.
For assay [4], the system named is TK-10 renal.
Assay [5] relates to SNB-19 CNS.
For assay [6], the system named is LOX IMVI melanoma.
For assay [7], the system named is SK-MEL-2 melanoma.
Assay [8] deals with HCC-2998 colon.
In assay [9] the test system is SR leukemia.

Values joined by “and” are separate entries in the source; they are usually repeats but may differ in a detail not shown here. Equal entries are not always repeated.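 Growth conditions: 96-well plates. Treatment: test compound, 48 hours, 5 concentrations. Analysis: linear interpolation between bracketing concentrations; unreached endpoints set to highest concentration. Abbreviation: GI50, concentration required for 50% inhibition of growth. TGI marks complete inhibition of growth.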 Some results are limits rather than exact numbers.

For `Cc1ccc(S(=O)(=O)N/N=C/CN2C(=O)c3ccccc3C2=O)cc1`, the TGI in assay [1], in [2], in [3], in assay [4], in [5] and in assay [6] was above 100 µM throughout. In addition, the TGI in assay [7], in assay [8] and in assay [9] was above 100 µM each time.

On to `COc1ccc(CN[C@H]2CCc3cc(OC)c(OC)c(OC)c3-c3ccc(SC)c(=O)cc32)c(OC)c1OC`, for which the GI50 in assay [1] is below 0.01 µM; in [2] it was 0.0251 µM; in assay [6], below 0.01 µM; in [7] it was 0.0118 µM; in assay [8], 0.0238 µM; in assay [9], below 0.01 µM. In addition, the TGI in [1] is 1.35 µM; in [2], above 100 µM; in assay [3], above 100 µM; in assay [4], above 100 µM; in assay [5] it was above 100 µM; in [6] it was 15.7 µM. The TGI in assay [8] was 0.0413 µM and 0.0657 µM.

`C=C(C)[C@@H]1CC[C@@H]2C(=CC[C@]3(C)C([C@H](C)CC/C=C(/C)C(=O)O)CC[C@@]23C)[C@@]1(C)CCC(=O)O` (stereo partly specified): the TGI in [1] is above 100 µM; in assay [2], above 100 µM; in [3], above 100 µM; in [4], above 100 µM; in [5], above 100 µM; in assay [6], 37.8 µM. Further, the TGI in assay [7] worked out at 45.1 µM; in [8], 35.1 µM; in assay [9] it was 49.4 µM.

For the molecule `CC(C)N(C(=O)C12C3C4C5C3C1(C(=O)N(C(C)C)C(C)C)C5C42)C(C)C` (stereo unspecified), the TGI in assay [1] was above 61.5 µM; in assay [2], above 100 µM; in [3], above 100 µM; in [4], above 100 µM; in assay [5] it was above 100 µM; in [6], above 69.5 µM. For the same molecule, the values for the TGI in [7], in assay [8] and in [9] were above 100 µM, above 100 µM and 38.7 µM, respectively.

As to `CCC[CH2][Sn]1([CH2]CCC)[O]N=Cc2ccccc2[O]1`, the GI50 in [1] was 0.192 µM; in assay [2], 1.84 µM; in assay [3], 2.03 µM; in assay [4], 0.555 µM; in assay [5], 1.09 µM; in assay [6] it was 0.377 µM. The figures for the GI50 in assay [7], in [8] and in assay [9] were 0.317 µM, 1.32 µM and 0.342 µM, respectively. Further, the TGI in assay [1] is 1.33 µM; in [2], 3.8 µM; in [3], 3.51 µM; in [4], 1.72 µM; in assay [5], 2.33 µM; in [6], 1.35 µM. Further, the TGI was 1.07 µM in assay [7], 2.83 µM in assay [8] and 2.75 µM in assay [9].

In the case of `CC(=O)OC1CC2C(C)(C)C(=O)C=C[C@]2(C)C2CCC3(C)C(=CCC3[C@H](CO)C[C@H](O)C(=O)C(C)(C)O)[C@]12C` (stereo partly specified), the TGI in assay [1] was above 100 µM; in [2], 79.3 µM; in assay [3], above 100 µM; in assay [4], 65.9 µM; in assay [5] it was above 100 µM; in [6] it was 33.6 µM. Besides, the TGI in [7] is 51.3 µM; in [8], 34.1 µM; in assay [9] it was 86.2 µM.

Turning to `C=CCN1C(=O)C/C(=C2/CCC(=O)N2CC=C)C1=O`, the TGI in [1], in assay [2], in [3], in assay [4], in assay [5] and in assay [6] was above 100 µM in each case. Besides, the TGI in assay [7], in [8] and in assay [9] was above 100 µM throughout.

With `CCC1C(=O)OCc2c1cc1n(c2=O)Cc2ccccc2-1` (stereo unspecified), the TGI in assay [1], in assay [2], in [3], in [4], in assay [5] and in assay [6] was above 100 µM in each case. Further, the TGI in assay [7], in assay [8] and in assay [9] was above 100 µM throughout.

As to `BrCC[N+]12CCCN1CCC2`, the TGI is 8.46 µM in [1]; above 81.8 µM in assay [2]; 10.7 µM in assay [3]; 27.9 µM in [4]; above 77 µM in [5]; 27 µM in assay [6]. For the same molecule, the values for the TGI in [7], in assay [8] and in [9] were 48.4 µM, 54.3 µM and 6.8 µM, respectively.

For `CC(C)=CCCC1(C)C=Cc2c(ccc3c2[nH]c2cc(O)c(C)cc23)O1` (stereo unspecified), the GI50 is 5.64 µM in assay [1]; 6.59 µM in [2]; 16.7 µM in assay [4]; above 25 µM in assay [5]; 4.53 µM in [6]; 6.47 µM in [7]. The results for the GI50 in assay [8] and in assay [9] were 4.63 µM and 5.55 µM, respectively. In addition, the TGI was 15.6 µM in assay [1]; 17.5 µM in assay [2]; above 25 µM in assay [3]; above 25 µM in assay [4]; above 25 µM in assay [5]; 8.19 µM in assay [6]. For the same molecule, the TGI was above 25 µM in assay [7], 8.86 µM in assay [8] and 14.7 µM in assay [9].
